Experimental data published in patent US9394268B2, “(E)-1-(5-methoxy-2,2-dimethyl-2H-chromen-8-yl)-3-(4-methoxyphenyl)prop-2-en-1-one and analogs thereof, as well as preparation method and use thereof” (Sichuan University, priority 2012, dated 2016).

Columns and labels:
Assay type in all cases: cell-based
HepG2 = test: Cell proliferative assay (MTT), HepG2; conditions: Homo sapiens, 72 h incubation, read-out: IC50s HepG2
Outline: (§1)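 IC50 values (mean±SEM, at least three independent experiments) come from dose-response curves of MTT absorbance at 590 nm. Treatment lasted 72 h, starting 24 h after seeding.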

SW620 = test: Cell proliferative assay (MTT), SW620; conditions: Homo sapiens, SW-620, 72 h incubation, read-out: IC50s SW620
Method: (§2) The synthesized compounds were evaluated for their cytotoxin activity against suspended tumor cells. These cells were seeded on 96-well plates and incubated for 24 h. Selected compounds were added at various doses and incubated for 72 h, MTT was then added, and the absorbance was measured at a wavelength of 590 nm. IC50 values are expressed as the mean±SEM from the dose-response curves of at least three independent experiments.

HT29 = test: Cell proliferative assay (MTT), HT29; conditions: Homo sapiens, HT-29, 72 h incubation, read-out: IC50s HT29
Method: as §2

K562 = test: Cell proliferative assay (MTT), K562; conditions: Homo sapiens, 72 h incubation, read-out: IC50s K562
Outline: as §1

HCT116 = test: Cell proliferative assay (MTT), HCT116; conditions: Homo sapiens, HCT-116, 72 h incubation, read-out: IC50s HCT116
Method: as §2

tumor cells = test: Cell proliferative assay (MTT), summary over tumor cells; conditions: summary in words of Table 1; colon, liver, leukemia lines
Method: as §2

A549 = test: Cell proliferative assay (MTT), A549; conditions: Homo sapiens, 72 h incubation, read-out: IC50s A549
Outline: as §1

A375 = test: Cell proliferative assay (MTT), A375; conditions: Homo sapiens, A-375, 72 h incubation, read-out: IC50s A375
Outline: as §1

SMMC-7221 = test: Cell proliferative assay (MTT), SMMC-7221; conditions: 72 h incubation, read-out: IC50s SMMC-7221
Outline: as §1

LO2 = test: Cell proliferative assay (MTT), LO2; conditions: Homo sapiens, L02, 72 h incubation, read-out: IC50s LO2
Outline: as §1

IC50 (HepG2) [µM]	IC50 (SW620) [µM]	IC50 (HT29) [µM]	IC50 (K562) [µM]	IC50 (HCT116) [µM]	IC50 (A549) [µM]	IC50 (A375) [µM]	IC50 (SMMC-7221) [µM]	SMILES	inhibitory activity against tumor cells (tumor cells)	IC50 (LO2) [µM]
7.56	6.57	> 10	> 10	> 10	–	–	–	COc1ccc(/C=C/C(=O)c2ccc(OC)c3c2OC(C)(C)C=C3)c(F)c1 [SKLBC-4, (E)-3-(2-fluoro-4-methoxyphenyl)-1-(5-methoxy-2,2-dimethyl-2H-chromen-8-yl)prop-2-en-1-one]	better inhibitory activity	–
0.21	2.14	4.48	3.67	> 10	–	–	–	COc1ccc(C(=O)/C=C/c2ccc3ccccc3c2)c2c1C=CC(C)(C)O2 [SKLBC-10, (E)-1-(5-methoxy-2,2-dimethyl-2H-chromen-8-yl)-3-(naphthalen-2-yl)prop-2-en-1-one]	better inhibitory activity	–
2.3	> 10	1.31	4.6	> 10	–	–	–	CCN(CC)c1ccc(/C=C/C(=O)c2ccc(OC)c3c2OC(C)(C)C=C3)cc1 [SKLBC-12, (E)-3-(4-(diethylamino)phenyl)-1-(5-methoxy-2,2-dimethyl-2H-chromen-8-yl)prop-2-en-1-one]	better inhibitory activity	–
4.74	> 10	> 10	> 10	8.88	–	–	–	COc1ccc(C(=O)/C=C/c2ccc(N3CCCC3)cc2)c2c1C=CC(C)(C)O2 [SKLBC-14, (E)-1-(5-methoxy-2,2-dimethyl-2H-chromen-8-yl)-3-(4-(pyrrolidin-1-yl)phenyl)prop-2-en-1-one]	better inhibitory activity	–
4.28	2.25	3.79	3.02	> 10	–	–	–	COc1ccc(C(=O)/C=C/c2ccc3ccccc3n2)c2c1C=CC(C)(C)O2 [SKLBC-16, (E)-1-(5-methoxy-2,2-dimethyl-2H-chromen-8-yl)-3-(quinolin-2-yl)prop-2-en-1-one]	better inhibitory activity	–
2.61	3.52	3.73	7.77	> 10	–	–	–	COc1ccc(C(=O)/C=C/c2ccc([N+](=O)[O-])cc2)c2c1C=CC(C)(C)O2 [SKLBC-17, (E)-1-(5-methoxy-2,2-dimethyl-2H-chromen-8-yl)-3-(4-nitrophenyl)prop-2-en-1-one]	better inhibitory activity	–
2.83	4.09	4.26	5.87	8.05	–	–	–	COc1ccc(C(=O)/C=C/c2cccc([N+](=O)[O-])c2)c2c1C=CC(C)(C)O2 [SKLBC-18, (E)-1-(5-methoxy-2,2-dimethyl-2H-chromen-8-yl)-3-(3-nitrophenyl)prop-2-en-1-one]	better inhibitory activity	–
0.78	0.67	1.47	3.55	1.63	–	–	–	COc1ccc(/C=C/C(=O)c2ccc(OC)c3c2OC(C)(C)C=C3)cc1O [SKLBC-28, (E)-3-(3-hydroxy-4-methoxyphenyl)-1-(5-methoxy-2,2-dimethyl-2H-chromen-8-yl)prop-2-en-1-one]	better inhibitory activity	–
> 10	> 10	> 10	> 10	> 10	–	–	–	COc1ccc(C(=O)/C=C/c2cccc(Cl)c2)c2c1C=CC(C)(C)O2 [SKLBC-35, (E)-3-(3-chlorophenyl)-1-(5-methoxy-2,2-dimethyl-2H-chromen-8-yl)prop-2-en-1-one]	–	–
> 10	> 10	> 10	> 10	> 10	–	–	–	COc1ccc(C(=O)/C=C/c2cccs2)c2c1C=CC(C)(C)O2 [SKLBC-36, (E)-1-(5-methoxy-2,2-dimethyl-2H-chromen-8-yl)-3-(thiophen-2-yl)prop-2-en-1-one]	–	–
> 10	> 10	> 10	> 10	9.44	–	–	–	COc1ccc(C(=O)/C=C/c2ccc(Cl)c(Cl)c2)c2c1C=CC(C)(C)O2 [SKLBC-37, (E)-3-(3,4-dichlorophenyl)-1-(5-methoxy-2,2-dimethyl-2H-chromen-8-yl)prop-2-en-1-one]	–	–
> 10	> 10	> 10	> 10	5.24	–	–	–	COc1ccc(C(=O)/C=C/c2cc(Cl)ccc2O)c2c1C=CC(C)(C)O2 [SKLBC-38, (E)-3-(5-chloro-2-hydroxyphenyl)-1-(5-methoxy-2,2-dimethyl-2H-chromen-8-yl)prop-2-en-1-one]	–	–
> 10	> 10	> 10	> 10	> 10	–	–	–	COc1ccc(C(=O)/C=C/c2ccccc2Cl)c2c1C=CC(C)(C)O2 [SKLBC-39, (E)-3-(2-chlorophenyl)-1-(5-methoxy-2,2-dimethyl-2H-chromen-8-yl)prop-2-en-1-one]	–	–
> 10	> 10	> 10	> 10	> 10	–	–	–	COc1ccccc1/C=C/C(=O)c1ccc(OC)c2c1OC(C)(C)C=C2 [SKLBC-40, (E)-1-(5-methoxy-2,2-dimethyl-2H-chromen-8-yl)-3-(2-methoxyphenyl)prop-2-en-1-one]	–	–
–	–	–	–	–	–	–	–	CCOc1ccc(C(=O)/C=C/c2ccc(N(CC)CC)cc2)c2c1C=CC(C)(C)O2 [SKLBC-41, (E)-3-(4-(diethylamino)phenyl)-1-(5-ethoxy-2,2-dimethyl-2H-chromen-8-yl)prop-2-en-1-one]	better inhibitory activity	–
9.7	–	–	4.42	–	9.7	8.4	> 10	CCN(CC)c1ccc(/C=C/C(=O)c2ccc(OS(=O)(=O)c3ccc(C)cc3)c3c2OC(C)(C)C=C3)cc1 [SKLBC-46, (E)-8-(3-(4-(diethylamino)phenyl)acryloyl)-2,2-dimethyl-2H-chromen-5-yl 4-methylbenzenesulfonate]	better inhibitory activity	8.2
0.185	–	–	0.528	–	8.45	0.45	0.23	CCN(CC)c1ccc(/C=C/C(=O)c2ccc(OS(C)(=O)=O)c3c2OC(C)(C)C=C3)cc1 [SKLBC-47, (E)-8-(3-(4-(diethylamino)phenyl)acryloyl)-2,2-dimethyl-2H-chromen-5-yl methanesulfonate]	better inhibitory activity	> 20
5.55	–	–	2.92	–	6.9	4.1	8.6	C=CC(=O)Oc1ccc(C(=O)/C=C/c2ccc(N(CC)CC)cc2)c2c1C=CC(C)(C)O2 [SKLBC-49, (E)-8-(3-(4-(diethylamino)phenyl)acryloyl)-2,2-dimethyl-2H-chromen-5-yl acrylate]	better inhibitory activity	8.6
0.703	–	–	0.59	–	1.61	9.2	9.7	CCN(CC)c1ccc(/C=C/C(=O)c2ccc(OC(=O)c3ccco3)c3c2OC(C)(C)C=C3)cc1 [SKLBC-50, (E)-8-(3-(4-(diethylamino)phenyl)acryloyl)-2,2-dimethyl-2H-chromen-5-yl furan-2-carboxylate]	better inhibitory activity	> 20
0.59	–	–	0.317	–	0.94	0.61	0.78	CCN(CC)c1ccc(/C=C/C(=O)c2ccc(OC(=O)C(C)C)c3c2OC(C)(C)C=C3)cc1 [SKLBC-52, (E)-8-(3-(4-(diethylamino)phenyl)acryloyl)-2,2-dimethyl-2H-chromen-5-yl isobutyrate]	better inhibitory activity	> 10
0.533	–	–	0.51	–	0.41	0.263	0.773	CCN(CC)c1ccc(/C=C/C(=O)c2ccc(OC(=O)C3CC3)c3c2OC(C)(C)C=C3)cc1 [SKLBC-54, (E)-8-(3-(4-(diethylamino)phenyl)acryloyl)-2,2-dimethyl-2H-chromen-5-yl cyclopropanecarboxylate]	better inhibitory activity	> 10
1.07	–	–	1.05	–	0.5	0.48	1.62	CCN(CC)c1ccc(/C=C/C(=O)c2ccc(OC(=O)Cc3cccc(C(F)(F)F)c3)c3c2OC(C)(C)C=C3)cc1 [SKLBC-55, (E)-8-(3-(4-(diethylamino)phenyl)acryloyl)-2,2-dimethyl-2H-chromen-5-yl 2-(3-(trifluoromethyl)phenyl)acetate]	better inhibitory activity	> 10
